Structures are written as SMILES.

As a reminder, the melting point is the temperature, or range, at which the solid turns liquid.

In turn, `O=C(N[C@H](Cc1ccc(C(F)(F)F)cc1)[C@@H](O)c1ccc(F)cc1)c1cc(C(F)(F)F)cc(C(F)(F)F)c1` (racemic) [Example 86, N-((1RS,2SR)-2-(4-fluorophenyl)-2-hydroxy-1-((4-(trifluoromethyl)phenyl)methyl)ethyl)-3,5-bis(trifluoromethyl)benzamide] returned a melting point of 150 to 151 °C. In the case of `O=C(N[C@H](Cc1ccc(C(F)(F)F)cc1)[C@@H](O)c1ccc(F)cc1)c1cccc2cccc(Br)c12` (racemic) [Example 87, 8-bromo-N-((1RS,2SR)-2-(4-fluorophenyl)-2-hydroxy-1-((4-(trifluoromethyl)phenyl)methyl)ethyl)-1-naphthalenecarboxamide], the melting point is 191 to 192 °C. `O=C(N[C@H](Cc1ccc(C(F)(F)F)cc1)[C@@H](O)c1ccc(F)cc1)c1ccc(C(=O)c2ccc(F)cc2)cc1` (racemic) [Example 88, 4-(4-fluorobenzoyl)-N-[(1RS,2SR)-2-(4-fluorophenyl)-2-hydroxy-1-[4-(trifluoromethyl)benzyl]ethyl]benzenecarboxamide]: the melting point is 156 to 157 °C. `O=C(N[C@H](Cc1ccc(C(F)(F)F)cc1)[C@@H](O)c1ccc(F)cc1)c1ccc(/C=C\c2ccc(Cl)cc2)cc1` (racemic) [Example 89, 4-[(Z)-2-(4-chlorophenyl)ethenyl]-N-[(1RS,2SR)-2-(4-fluorophenyl)-2-hydroxy-1-[4-(trifluoromethyl)benzyl]ethyl]benzenecarboxamide] had a melting point of 193 to 194 °C. The result for `O=C(N[C@H](Cc1ccc(C(F)(F)F)cc1)[C@@H](O)c1ccc(F)cc1)c1ccc(Oc2ccc(Cl)cc2)cc1` (racemic) [Example 90, 4-(4-chlorophenoxy)-N-[(1RS,2SR)-2-(4-fluorophenyl)-2-hydroxy-1-[4-(trifluoromethyl)benzyl]ethyl]benzenecarboxamide] reads 188 to 189 °C. For `COCc1oc(-c2ccccc2)c(C(=O)N[C@H](Cc2ccc(C(F)(F)F)cc2)[C@@H](O)c2ccc(F)cc2)c1-c1ccc(F)cc1` (racemic) [Example 91, 4-(4-fluorophenyl)-N-[(1RS,2SR)-2-(4-fluorophenyl)-2-hydroxy-1-[4-(trifluoromethyl)benzyl]ethyl]-5-[(methoxy)methyl]-2-phenylfuran-3-carboxamide] the value was 204 to 206 °C; for `O=C(N[C@H](Cc1ccc(C(F)(F)F)cc1)[C@@H](O)c1ccc(F)cc1)c1ccc(CCc2ccc(Cl)cc2)cc1` (racemic) [Example 92, 4-[2-(4-chlorophenyl)ethyl]-N-[(1RS,2SR)-2-(4-fluorophenyl)-2-hydroxy-1-[4-(trifluoromethyl)benzyl]ethyl]benzenecarboxamide], 211 to 212 °C; for `O=C(N[C@H](Cc1ccc(C(F)(F)F)cc1)[C@@H](O)c1ccc(F)cc1)c1ccc([C@@H]2O[C@@H]2c2ccc(Cl)cc2)cc1` (racemic) [Example 93, 4-[cis-3-(4-chlorophenyl)oxiran-2-yl]-N-[(1RS,2SR)-2-(4-fluorophenyl)-2-hydroxy-1-[4-(trifluoromethyl)benzyl]ethyl]benzenecarboxamide], 162 to 166 °C. On to `O=C(N[C@H](Cc1ccc(C(F)(F)F)cc1)[C@@H](O)c1ccc(F)cc1)c1ccc(/C=C\c2ccccc2Cl)cc1` (racemic) [Example 96, 4-[(Z)-2-(2-chlorophenyl)ethenyl]-N-[(1RS,2SR)-2-(4-fluorophenyl)-2-hydroxy-1-[4-(trifluoromethyl)benzyl]ethyl]benzenecarboxamide], for which the melting point was 153 to 154 °C. In turn, `O=C(N[C@H](Cc1ccc(C(F)(F)F)cc1)[C@@H](O)c1ccc(F)cc1)c1c(CSc2ccccc2)ccc2ccccc12` (racemic) [Example 97, N-[(1RS,2SR)-2-(4-fluorophenyl)-2-hydroxy-1-[4-(trifluoromethyl)benzyl]ethyl]-2-[(phenylthio)methyl]naphthalene-1-carboxamide] gave a melting point of 102 to 104 °C.

As for `Cn1cc(C(=O)N[C@H](Cc2ccc(C(F)(F)F)cc2)[C@@H](O)c2ccc(F)cc2)c2ccccc21` (racemic) [Example 98, N-[(1RS,2SR)-2-(4-fluorophenyl)-2-hydroxy-1-[4-(trifluoromethyl)benzyl]ethyl]-1-methyl-1H-indole-3-carboxamide], the melting point was in the range of 129 to 131 °C. `O=C(CCCCc1ccccc1)N[C@H](Cc1ccc(C(F)(F)F)cc1)[C@@H](O)c1ccc(F)cc1` (racemic) [Example 99, N-((1RS,2SR)-2-(4-fluorophenyl)-2-hydroxy-1-((4-(trifluoromethyl)phenyl)methyl)ethyl)-5-phenylpentanamide] gave a melting point of 152 to 153 °C.

Turning to `COc1ccc(C(=O)N[C@H](Cc2ccc(C(F)(F)F)cc2)[C@@H](O)c2ccc(F)cc2)c2ccccc12` (racemic) [Example 101, N-[(1RS,2SR)-2-(4-fluorophenyl)-2-hydroxy-1-[4-(trifluoromethyl)benzyl]ethyl]-4-methoxynaphthalene-1-carboxamide], the melting point was 227 to 228 °C.

In turn, `O=C(N[C@H](Cc1ccc(C(F)(F)F)cc1)[C@@H](O)c1ccc(F)cc1)c1cc([N+](=O)[O-])cc2ccccc12` (racemic) [Example 102, N-[(1RS,2SR)-2-(4-fluorophenyl)-2-hydroxy-1-[4-(trifluoromethyl)benzyl]ethyl]-3-nitronaphthalene-1-carboxamide] displayed a melting point of 231 to 232 °C. `NC(=O)c1ccc(C(=O)N[C@H](Cc2ccc(C(F)(F)F)cc2)[C@@H](O)c2ccc(F)cc2)c2ccccc12` (racemic) [Example 104, N1-[(1RS,2SR)-2-(4-fluorophenyl)-2-hydroxy-1-[4-(trifluoromethyl)benzyl]ethyl]naphthalene-1,4-dicarboxamide]: the melting point lay within 255 to 256 °C.

`O=C(N[C@H](Cc1ccc(C(F)(F)F)cc1)[C@@H](O)c1ccc(F)cc1)c1ccc(CO)c2ccccc12` (racemic) [Example 105, N-((1RS,2SR)-2-(4-fluorophenyl)-2-hydroxy-1-((4-(trifluoromethyl)phenyl)methyl)ethyl)-4-(hydroxymethyl)-1-naphthalenecarboxamide] yielded a melting point of 202 to 203 °C.

With `O=C(N[C@H](Cc1ccc(C(F)(F)F)cc1)[C@@H](O)c1ccc(F)cc1)c1cccc(Oc2ccccc2)c1` (racemic) [Example 107, N-((1RS,2SR)-2-(4-fluorophenyl)-2-hydroxy-1-((4-(trifluoromethyl)phenyl)methyl)ethyl)-3-phenoxybenzamide], the melting point was 144 to 145 °C. `O=C(CC(F)(F)F)N[C@H](Cc1ccc(C(F)(F)F)cc1)[C@@H](O)c1ccc(F)cc1` (racemic) [Example 109, N-[(1RS,2SR)-2-(4-fluorophenyl)-2-hydroxy-1-[4-(trifluoromethyl)benzyl]ethyl]-3,3,3-trifluoropropionamide] registered a melting point of 179 to 180 °C.

The compound `O=C(N[C@H](Cc1ccc(C(F)(F)F)cc1)[C@@H](O)c1ccc(F)cc1)C(c1ccccc1)C1CCCC1` (mixture of isomers) [Example 110, 2-cyclopentyl-N-[(1RS,2SR)-2-(4-fluorophenyl)-2-hydroxy-1-[4-(trifluoromethyl)benzyl]ethyl]-2-phenylacetamide] had a melting point of 201 to 202 °C. With `O=C(N[C@H](Cc1ccc(C(F)(F)F)cc1)[C@@H](O)c1ccc(F)cc1)c1cc([N+](=O)[O-])cc2c1CCCC2` (racemic) [Example 111, N-[(1RS,2SR)-2-(4-fluorophenyl)-2-hydroxy-1-[4-(trifluoromethyl)benzyl]ethyl]-3-nitro-5,6,7,8-tetrahydronaphthalene-1-carboxamide], the melting point is 216 to 217 °C. For `CC(C)(C)C(Cc1ccccc1)C(=O)N[C@H](Cc1ccc(C(F)(F)F)cc1)[C@@H](O)c1ccc(F)cc1` (mixture of isomers) [Example 112, 2-benzyl-N-[(1RS,2SR)-2-(4-fluorophenyl)-2-hydroxy-1-[4-(trifluoromethyl)benzyl]ethyl]-3,3-dimethylbutyramide] the value was 175 to 176 °C. Take `O=C(N[C@H](Cc1ccc(C(F)(F)F)cc1)[C@@H](O)c1ccc(F)cc1)c1cccc2c1OCCCO2` (racemic) [Example 113, N-[(1RS,2SR)-2-(4-fluorophenyl)-2-hydroxy-1-[4-(trifluoromethyl)benzyl]ethyl]-3,4-dihydro-2H-1,5-benzodioxepine-6-carboxamide]: the melting point was 155 to 156 °C. Regarding `O=C(N[C@H](Cc1ccc(C(F)(F)F)cc1)[C@@H](O)c1ccc(F)cc1)OCc1ccccc1` (racemic) [Example 114, benzyl N-[(1RS,2SR)-2-(4-fluorophenyl)-2-hydroxy-1-[4-(trifluoromethyl)benzyl]ethyl]carbamate], the melting point was in the range of 151 to 152 °C.

`CCOC(=O)N[C@H](Cc1ccc(C(F)(F)F)cc1)[C@@H](O)c1ccc(F)cc1` (racemic) [Example 115, ethyl N-[(1RS,2SR)-2-(4-fluorophenyl)-2-hydroxy-1-[4-(trifluoromethyl)benzyl]ethyl]carbamate] returned a melting point of 143 to 144 °C. For `CC(C)(C)COC(=O)N[C@H](Cc1ccc(C(F)(F)F)cc1)[C@@H](O)c1ccc(F)cc1` (racemic) [Example 116, neopentyl N-[(1RS,2SR)-2-(4-fluorophenyl)-2-hydroxy-1-[4-(trifluoromethyl)benzyl]ethyl]carbamate], the melting point lay in the range of 112 to 113 °C.

Regarding `O=S(=O)(N[C@H](Cc1ccc(C(F)(F)F)cc1)[C@@H](O)c1ccc(F)cc1)c1cccc2ccccc12` (racemic) [Example 117, N-((1RS,2SR)-2-(4-fluorophenyl)-2-hydroxy-1-((4-(trifluoromethyl)phenyl)methyl)ethyl)-1-naphthalenesulfonamide], the melting point fell in the range of 176 to 177 °C. Compound `O=C(Nc1cccc2ccccc12)N[C@H](Cc1ccc(C(F)(F)F)cc1)[C@@H](O)c1ccc(F)cc1` (racemic) [Example 118, N-((1RS,2SR)-2-(4-fluorophenyl)-2-hydroxy-1-((4-(trifluoromethyl)phenyl)methyl)ethyl)-N′-(1-naphthalenyl)urea] yielded a melting point of 222 to 223 °C.
